Reference: PubChem BioAssay (NCI)
Several values for one entry are separate records, joined by “and”; a condition that tells them apart may be missing. Identical values can stand only once.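 Cells were grown in 96-well plates and exposed to each compound for 48 hours at five concentrations; endpoints were interpolated linearly between bracketing concentrations, or set to the highest concentration if not reached. GI50 marks 50% less growth. TGI: concentration producing complete growth inhibition.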

Key:
Assay in all cases: DTP human tumour cell line panel, 48 h
HS 578T breast = test system: HS 578T breast
KM20L2 colon = test system: KM20L2 colon
SNB-78 CNS = test system: SNB-78 CNS
LXFL 529 NSCLC = test system: LXFL 529 NSCLC
DLD-1 colon = test system: DLD-1 colon
XF 498 CNS = test system: XF 498 CNS
T-47D breast = test system: T-47D breast
RXF-631 renal = test system: RXF-631 renal
MDA-N = test system: MDA-N

Structure (SMILES)	GI50 (HS 578T breast)	TGI (HS 578T breast)	TGI (KM20L2 colon)	TGI (SNB-78 CNS)	TGI (LXFL 529 NSCLC)	TGI (DLD-1 colon)	TGI (XF 498 CNS)	GI50 (T-47D breast)	TGI (T-47D breast)	TGI (RXF-631 renal)	TGI (MDA-N)
COc1ccc(C2=CSc3cc(Cl)c(C)cc3S(=O)(=O)N2C(C)=O)cc1	55.2 µM	> 100 µM	–	–	–	–	–	–	–	–	–
CCN(CC)CC(C(=O)Nc1c(C)cccc1C)/C(C)=N\NC(=O)C[N+](C)(C)C (stereo unspecified)	–	–	> 100 µM	> 100 µM	> 100 µM	> 100 µM	> 100 µM	–	–	–	–
Cn1ccnc1C(=O)/C=C/c1ccc(CC(=O)Nc2ccc(Br)cc2)cc1	7.83 µM	> 16.7 µM	–	–	–	–	–	5.5 µM	> 16.7 µM	–	–
NC(CSC(c1ccccc1)(c1ccccc1)c1ccc2c(c1)OCO2)C(=O)O (stereo unspecified)	0.392 µM	24.6 µM	–	–	–	–	–	0.597 µM	> 67.9 µM	–	–
O=C(O)C(Cc1ccccc1)N1C(=O)N/C(=C\c2ccc(F)cc2)C1=O (stereo unspecified)	–	–	–	> 100 µM	> 100 µM	> 100 µM	–	–	–	–	–
Cc1cc(=O)n2[nH]c(-c3ccc(C(C)(C)C)cc3)cc2n1	3.74 µM	33.3 µM	–	–	–	–	–	4.43 µM	79.8 µM	–	–
O=c1n(CC2CO2)c(=O)n(CC2CO2)n1CC1CO1 (stereo unspecified)	> 100 µM	> 100 µM	–	–	–	–	–	6.64 µM	> 100 µM	–	–
COc1ccc(/C=C\c2cc(OC)c3c(c2)OCO3)c(O)c1O	–	–	61.5 µM	16 µM	3.74 µM	23 µM	26.6 µM	–	–	–	–
Nc1cc2nc3ccccc3sc-2cc1=O	2.21 µM	6.24 µM	–	–	–	–	–	5.96 µM	33.7 µM	–	–
O=C1c2ccccc2C(=O)c2sc(Nc3cccc(Cl)c3)nc21	2.82 µM	9.15 µM	20.2 µM	–	2.86 µM	3.95 µM	3.18 µM	1.84 µM	5.98 µM	–	–
CCCCCCCC(=O)SCC/C=C/[C@@H]1CC(=O)NCc2cccc(n2)C2=N[C@@](C)(CS2)C(=O)N[C@@H](C(C)C)C(=O)N1	0.378 µM	> 33.3 µM	–	–	–	–	–	0.412 µM	3 µM	–	–
Fc1ccc(Nc2ncnc3ccc(-c4cnc5[nH]ccc5c4)cc23)cc1Cl	2.66 µM	> 45.9 µM	–	–	–	–	–	0.592 µM	13.9 µM	–	–
COc1c2ccoc2c(/C=C/C=O)c2oc(-c3ccccc3)cc(=O)c12	7.2 µM	> 100 µM	–	–	–	–	–	2.14 µM	6.25 µM	–	–
CN(CC(=O)O)S(=O)(=O)c1ccc2ccccc2c1	–	–	> 100 µM	–	> 100 µM	> 100 µM	> 100 µM	–	–	> 100 µM	–
COC(=O)Nc1nc2ccc(S(=O)c3ccccc3)cc2[nH]1 (stereo unspecified)	19.6 µM	> 100 µM	–	–	–	–	–	4.38 µM	> 100 µM	–	–
CC(C)c1ccc(C(C)C(=O)N(CC2=C(C(C)c3ccccn3)c3ccccc3C2)C(C)C)cc1 (stereo unspecified)	1.84 µM	13.6 µM	–	–	–	–	–	2.94 µM	> 100 µM	–	–
CC1=C(C#N)C23C(=O)c4ccccc4C(O)=C2C(=O)C=CC3(O)N1Cc1ccccc1 (stereo unspecified)	26.2 µM	> 100 µM	–	–	–	–	–	25.8 µM	71.6 µM	–	–
CCNC1C2(CCCCC2)NC(=O)C12CCCCC2 (stereo unspecified)	–	–	> 100 µM	> 100 µM	> 100 µM	> 100 µM	> 100 µM	–	–	–	–

Structure (SMILES)	GI50 (HS 578T breast)	TGI (HS 578T breast)	TGI (KM20L2 colon)	TGI (SNB-78 CNS)	TGI (LXFL 529 NSCLC)	TGI (DLD-1 colon)	TGI (XF 498 CNS)	GI50 (T-47D breast)	TGI (T-47D breast)	TGI (RXF-631 renal)	TGI (MDA-N)
CC1=C(C(=O)Nc2ccc(F)c(Cl)c2)C(c2ccc(Cl)cc2)NC(=O)N1 (stereo unspecified)	21.5 µM	51.1 µM	–	–	–	–	–	> 100 µM	> 100 µM	–	–
CCCCCCCCSC1=CC(=O)c2nc3ccccc3c3ccnc1c23	> 100 µM	> 100 µM	–	–	–	–	–	84.5 µM	> 100 µM	–	–
O=C(NCCNc1nccc(-c2c(-c3cccc(O)c3)nc3sccn23)n1)c1ccccc1O	3.15 µM	16 µM	–	–	–	–	–	3.65 µM	20.5 µM	–	–
C=C(CNCCO)[C@@H]1CC[C@]2(CO)CC[C@]3(C)[C@H](CC[C@@H]4[C@@]5(C)CCC(N)C(C)(C)[C@@H]5CC[C@]43C)[C@@H]12 (stereo partly specified)	2.33 µM	6.92 µM	–	–	–	–	–	2.07 µM	3.95 µM	–	–
Cc1ccc(-c2nnc(-c3ccc4ccccc4c3)o2)cc1	–	> 100 µM	–	–	–	–	–	–	> 100 µM	–	> 100 µM
O=C(Nc1ccc(I)cc1)c1cc([N+](=O)[O-])ccc1O	3.13 µM	29.3 µM	–	–	–	–	–	3.87 µM	> 100 µM	–	–
COC(=O)[C@@H](C)C[C@H](Cc1ccc(F)cc1)NC(=O)c1csc([C@@H](C[C@H](C(C)C)N(C)C(=O)[C@@H](NC(=O)[C@H]2CCCCN2C)C(C)C)OC(C)=O)n1	0.00102 µM and 0.00612 µM	–	–	–	–	–	–	–	–	–	–
CCOC(=O)Nc1nc2ccc(OCC)cc2s1	56.7 µM	> 100 µM	–	–	–	–	–	28.8 µM	> 100 µM	–	–
N#CC(C#N)=c1ccc(=C2NCC3CCCN23)cc1 (stereo unspecified)	–	–	> 100 µM	> 100 µM	> 100 µM	–	–	–	–	–	–
NC1CCC(Nc2nc(NCc3ccc(-c4ccco4)nc3)c3ncn(C4CCCC4)c3n2)CC1 (stereo unspecified)	0.0205 µM	0.0955 µM and 0.347 µM	–	–	–	–	–	0.0249 µM	–	–	–
C=CCc1cc(OC)c2c(c1)C(O)CC(c1ccc(OC)c(OC)c1)O2 (stereo unspecified)	–	–	> 100 µM	> 100 µM	> 100 µM	> 100 µM	–	–	–	–	–
Cc1cc(=O)[nH]c(NNC(C#N)c2cccc(O)c2)n1 (stereo unspecified)	–	–	> 100 µM	> 100 µM	> 100 µM	> 100 µM	–	–	–	–	–
O=C1NC2(CCCCC2)C2CCCCC(O)C12 (stereo unspecified)	–	–	> 100 µM	> 100 µM	> 100 µM	> 100 µM	–	–	–	> 100 µM	–
CNC(=O)c1ccccc1Nc1nc(Nc2ccc(N3CCOCC3)cc2OC)ncc1Cl	1.7 µM	> 26.4 µM	–	–	–	–	–	1.28 µM	> 36.1 µM	–	–
CC(=O)NC1=C(NCC(C)(C)C)C(=O)c2ccccc2C1=O	–	–	> 100 µM	> 100 µM	> 100 µM	> 100 µM	65.5 µM	–	–	–	–
CSc1ccc(/C=C2\CN(C)C/C(=C\c3ccc(SC)cc3)C2=O)cc1	–	–	> 100 µM	> 100 µM	35.7 µM	> 100 µM	58 µM	–	–	–	–
CN(C)c1ccc(-c2cc(-c3ccc(Nc4nc(Nc5ccc(Cl)cc5)nc(Nc5ccc(Cl)cc5)n4)cc3)no2)cc1	3.97 µM	> 100 µM	–	–	–	–	–	3.69 µM	78.5 µM	–	–
COc1cc2nc(C)nc(N[C@H](C)c3cc(N)cc(C(F)(F)F)c3)c2cc1O[C@H]1CCOC1	14.7 µM	38.9 µM	–	–	–	–	–	16.3 µM	41.4 µM	–	–
